Laboratory results reported in patent US8431530B2, “Compositions and methods for treating aids or cancer by inhibiting the secretion of microparticles” (priority 2009, dated 2013).

Assays:
pNL4-3 in Jurkat cells = assay: p24 assay of virion production after pNL4-3 co-transfection; format: cell-based, HIV; conditions: for amount of virus production (in words, Table I): 96 hours, pNL4-3 co-transfection; for p24 / Effect (a/b): Jurkat; for p24: co-transfected with pNL4-3; for Effect (a/b): p24 of sample / p24 of pNL4-3 + sM1
Method: I. Jurkat cells were co-transfected as shown below: (transfection efficiency 30-40% by Chariot Kit):
pNL4-3 is a clone containing the viral genome. Transfection into cells allows expression of the viral genome and ultimately virion formation and release. The amount of virion production in the extracellular supernatant is measured through p24 protein (viral protein). Samples were collected at 48 hours and 96 hours post-infection.
At 48 hr postinfection two plates in each group were removed and analyzed by: • a. p24 assay • b. Nef assay • c. Infectivity assay • At 96 hr postinfection the other two plates in each group were removed and analyzed by: • a. p24 assay • b. Nef assay • c. Infectivity assay

R7 in Jurkat cells = assay: p24 ELISA of supernatant after R7 co-transfection; format: cell-based, HIV
Method: Jurkat cells, HEK293 cells, THP-1 monocytes and U937 monocytes were co-transfected with either R7 […] Nef SMR wt (antagonist) or with R7+Nef SMR mt (nonfunctional antagonist) by Chariot™ Kit. The transfection efficiency was 30-40%.
R7 is a clone containing the viral genome. Transfection into cells allows expression of the viral genome and ultimately virion formation and release. The amount of virion production in the extracellular supernatant is measured through p24 protein (viral protein).
(§1) At 2 hours, 3 days, 6 days, 9 days, 13 days, 15 days, 17 days, 20 days, 23 days, 27 days and 36 days post-transfection, 0.5 ml supernatant were collected from each plate, mixed with 0.5 ml fresh media and analyzed by p24 ELISA assay. 1.5 ml of supernatant were collected from each plate and spun in a TLA100 rotor at 400,000×g for 1 hour to create the pellets. The pellets were used for Western blot analysis with p24 mAb and Nef mAb.

[1] = test system: R7 in Jurkat cells, HEK293 cells, THP-1 monocytes, U937 monocytes; assay: Western blot of Nef and p24 in supernatant pellets; format: cell-based, HIV; conditions: R7 co-transfection, HEK293, THP-1, U937, 400,000×g supernatant pellets
Method: as §1
No effect is observed for the negative control peptide (NefSMRmut). […] This is possibly due to antagonism of trafficking of viral component(s) to the cytoplasmic membrane. Ultimately this would (i) shutdown the HIV infection and (ii) block progression to AIDS.

[2] = test system: HIV-1 Gag-GFP secretion, HEK293; assay: HIV-1 Gag-GFP induced secretion, fluorescent plate reader assay; format: cell-based; conditions: for SMRmt/SMRwt ratio of secretion: HEK293, HIV-1 Gag-GFP; for Increase in Secretion (relative to untransfected cells), exp condition/UT: HEK293, HIV-1 Gag-GFP (sM1 column head prints GFP/sM1), 0.5 μg peptide, 48 hours
Method: (§2) Cells were co-transfected with 0.5 μg of pQBI-HIV Gag-GFP (expresses wild type Gag protein) and either 0.5 μg of HIV-1 Nef SMRwt, SMRmut peptide, sM1 peptide or untransfected controls with Chariot for 48 hours. The conditioned supernatants from these cultures were assayed for GFP fluorescence by plate reader.

[3] = test system: HIV-1 Gag-GFP secretion, Jurkat; assay: as above; format: cell-based; conditions: for SMRmt/SMRwt ratio of secretion: HIV-1 Gag-GFP; for Increase in Secretion (relative to untransfected cells), exp condition/UT: HIV-1 Gag-GFP (sM1 column head prints GFP/sM1), 0.5 μg peptide, 48 hours
Method: as §2

[4] = test system: HIV-1 Gag-GFP secretion, U937; assay: as above; format: cell-based; conditions: for SMRmt/SMRwt ratio of secretion: U937, HIV-1 Gag-GFP; for Increase in Secretion (relative to untransfected cells), exp condition/UT: U937, HIV-1 Gag-GFP (sM1 column head prints GFP/sM1), 0.5 μg peptide, 48 hours
Method: as §2

[5] = test system: HIV-1 Gag-GFP secretion, THP-1; assay: as above; format: cell-based; conditions: for SMRmt/SMRwt ratio of secretion: THP-1, HIV-1 Gag-GFP; for Increase in Secretion (relative to untransfected cells), exp condition/UT: THP-1, HIV-1 Gag-GFP (sM1 column head prints GFP/sM1), 0.5 μg peptide, 48 hours
Method: as §2

Substance: H2N-AGFPVAAAGFPVDYKDDDDK-OH (H-AGFPVAAAGFPVDYKDDDDK-OH) [SMRmt]
- amount of virus production (in words, Table I) (pNL4-3 in Jurkat cells): no effect
- p24 (pNL4-3 in Jurkat cells; 48 hr): 0 pg/mL
- Effect (a/b) (pNL4-3 in Jurkat cells; 48 hr): 1
- p24 (pNL4-3 in Jurkat cells; 96 hr): 15 pg/mL
- Effect (a/b) (pNL4-3 in Jurkat cells; 96 hr): 0.5
- time post transfection at which p24 concentration increased (R7 in Jurkat cells): 3 days
- amount of virus production (Western blot of p24 and Nef) [1]: No effect
- SMRmt/SMRwt ratio of secretion [2]: 1.08y
- Increase in Secretion (relative to untransfected cells), exp condition/UT [2]: 25.96x
- SMRmt/SMRwt ratio of secretion [3]: 1.22y
- Increase in Secretion (relative to untransfected cells), exp condition/UT [3]: 58.22x
- SMRmt/SMRwt ratio of secretion [4]: 1y
- Increase in Secretion (relative to untransfected cells), exp condition/UT [4]: 43.82x
- SMRmt/SMRwt ratio of secretion [5]: 1.08y
- Increase in Secretion (relative to untransfected cells), exp condition/UT [5]: 45.06x

Substance: H-VGFPVAAVGFPVDYKDDDDK-OH [SMRwt]
- amount of virus production (in words, Table I) (pNL4-3 in Jurkat cells): reduced drastically
- p24 (pNL4-3 in Jurkat cells; 48 hr): 0 pg/mL
- Effect (a/b) (pNL4-3 in Jurkat cells; 48 hr): 1
- p24 (pNL4-3 in Jurkat cells; 96 hr): 0 pg/mL
- Effect (a/b) (pNL4-3 in Jurkat cells; 96 hr): <0.033
- time post transfection at which p24 concentration increased (R7 in Jurkat cells): 13 days
- amount of virus production (Western blot of p24 and Nef) [1]: drastically reduced to zero or close to zero
- SMRmt/SMRwt ratio of secretion [2]: 1y
- Increase in Secretion (relative to untransfected cells), exp condition/UT [2]: 24.22x
- Gag virus-like particle release (in words, Table II) ([3]; Gag-GFP alone, HEK293, THP-1, U937): no effect on Gag virus-like particle release
- SMRmt/SMRwt ratio of secretion [3]: 1y
- Increase in Secretion (relative to untransfected cells), exp condition/UT [3]: 47.46x
- SMRmt/SMRwt ratio of secretion [4]: 1y
- Increase in Secretion (relative to untransfected cells), exp condition/UT [4]: 43.95x
- SMRmt/SMRwt ratio of secretion [5]: 1y
- Increase in Secretion (relative to untransfected cells), exp condition/UT [5]: 41.3x
